From patent US8415307B1, “Antibiotic compositions for the treatment of gram negative infections” (priority 2010, dated 2013)
*1 amine or outer side, *2 acyl side, *3 side chain or, on linkers, in order; H or OH if unused. Where a SMILES comes first, the peptide text is derived from it. Bridges are numbered along the chain shown (N, C = ends). [ ]: non-standard residue; d: D form. The star is where a group is joined. ξ: configuration not given here. Thr(3ξ) = CC(O)[C@H](N)C(=O)O; NH(2-ClPh) = Clc1ccccc1N*; X1 = CC[C@H](C)CCCCC(=O)*; dDab = NCC[C@@H](N)C(=O)O; Dab = NCC[C@H](N)C(=O)O; CO = O=C([*:1])[*:2]; ξDab = NCCC(N)C(=O)O

What was measured:
[1] = system: P. aeruginosa; experiment: MIC50-90 against small panels (n = 35); format: cell-based; design: key: A: a MIC value measurement that is the same as that observed for polymyxin B; a MIC value measured that is lower than the comparable value observed for polymxin B; a MIC value measured that is higher than the comparable value observed for polymyxin B; details: small panel n = 35; class relative to polymyxin B
Text: (§1) MIC's refer to the concentration of each antimicrobial agent required to inhibit the growth of a bacterial isolate, as well as the corresponding concentrations required to inhibit 50% and 90% of each group of microorganisms tested [MIC50 and MIC90, respectively, consistent with definitions in the “Instructions to Authors” for Antimicrobial Agents and Chemotherapy (Antimicrobial Agents and Chemotherapy, January 2010, p. 1-23, Vol. 54, No. 1, incorporated herein by reference)]. When only up to nine isolates of a species are tested, MIC's are reported as the MIC range of each antimicrobial agent tested. MIC values provided as numerical ranges for testing of a single bacterial strain indicate the range of MIC values obtained in repeated tests of the indicated bacteria strain.
(§2) Antibacterial potency can be assessed by broth microdilution according to CLSI guidelines, plates can be incubated at 37° C., and aeration (rotation at 200 rpm) can be employed. In some assays, surfactant (Survanta, Abbott Laboratories) can be added to give a final concentration of 1, 10 and 40% in caMHB. Native polymyxin A, polymyxin B and the comparator compound of Formula II (polymyxin B decapeptide with an o-chlorophenyl urea tail) were included for comparison.

[2] = system: E. coli; experiment: MIC50-90 against small panels (n = 35); format: cell-based; design: key: A: a MIC value measurement that is the same as that observed for polymyxin B; a MIC value measured that is lower than the comparable value observed for polymxin B; a MIC value measured that is higher than the comparable value observed for polymyxin B; details: small panel n = 35; class relative to polymyxin B
Text: as §1, §2

[3] = system: A. baumannii; experiment: MIC50-90 against small panels (n = 35); format: cell-based; design: key: A: a MIC value measurement that is the same as that observed for polymyxin B; a MIC value measured that is lower than the comparable value observed for polymxin B; a MIC value measured that is higher than the comparable value observed for polymyxin B; details: small panel n = 35; class relative to polymyxin B
Text: as §1, §2

[4] = system: K. pneumoniae; experiment: MIC50-90 against small panels (n = 35); format: cell-based; design: key: A: a MIC value measurement that is the same as that observed for polymyxin B; a MIC value measured that is lower than the comparable value observed for polymxin B; a MIC value measured that is higher than the comparable value observed for polymyxin B; details: small panel n = 35; class relative to polymyxin B
Text: as §1, §2

[5] = system: P. aeruginosa #44; experiment: MICs for P. aeruginosa #44 in the presence of surfactant; format: cell-based; design: key: A: a MIC value measurement that is the same as that observed for polymyxin B; a MIC value measured that is lower than the comparable value observed for polymxin B; a MIC value measured that is higher than the comparable value observed for polymyxin B; details: class relative to polymyxin B; for MIC P. aeruginosa #44, 10% surfactant: 10% surfactant (Survanta) in caMHB; for MIC P. aeruginosa #44, 40% surfactant: 40% surfactant (Survanta) in caMHB
Procedure: as §2

[6] = system: E. coli; experiment: MIC50 and MIC90, panel of Gram negative bacterial strains (CLSI broth microdilution); format: cell-based; design: key to E. coli MIC50 / E. coli MIC90: A: a measured MIC value equal to that of polymyxin B; a measured MIC value less than the corresponding MIC value measured for polymyxin B; a measured MIC value greater than the corresponding MIC value measured for polymyxin B; details: class relative to polymyxin B; some strains multi-drug resistant
Procedure: (§3) The potency and spectrum of Compound 5 was studied using a panel of Gram negative bacterial strains.
(§4) MIC testing can be performed according to Clinical and Laboratory Standards Institute (CLSI) M7-A7 (2006) broth microdilution methods. Unless otherwise indicated, MIC values are provided in units of micrograms per milliliter.
(§5) One day prior to testing, individual colonies were isolated by streaking onto rich, non-selective Tryptic Soy agar with 5% lysed sheeps blood (TSAB) with incubation at 35-37° C. for 18-24 hours.
(§6) Cultures were prepared by touching 3-5 colonies into 3 mL of cation-adjusted Mueller Hinton Broth (caMHB) in a 14-mL tube (caMHB was prepared and sterilized according to manufacturer's specifications).
(§7) OD600 of growing cultures was measured and adjusted to approximately 10^5 colony forming units per mL (CFU/mL) in caMHB for MIC inoculation (approximately OD600 0.001).
(§8) Diluted cultures were used to inoculate 50 μL per well in broth microdilution assays (final volume 100 μl per well; compounds were prepared in two-fold dilutions).
(§9) Plates were incubated 16-20 hours at 37° C., with shaking at 200 rpm.
(§10) OD600 was determined for all wells. Growth was defined as OD600>0.1. MICs were defined as the lowest concentration producing no visible turbidity (OD600<0.1).

[7] = system: P. aeru; experiment: as above; format: cell-based, P. Aeruginosa; design: key to P. aeru MIC50 / P. aeru MIC90: A: a measured MIC value equal to that of polymyxin B; a measured MIC value less than the corresponding MIC value measured for polymyxin B; a measured MIC value greater than the corresponding MIC value measured for polymyxin B; details: class relative to polymyxin B, some strains multi-drug resistant
Procedure: as §3, §4, §5, §6, §7, §8, §9, §10

[8] = system: K. pneumoniae 1800 (PMX-resistant); experiment: MIC against the primary screening panel (broth microdilution); format: cell-based; design: key: A: a MIC value measurement that is the same as that observed for polymyxin B; a MIC value measured that is lower than the comparable value observed for polymxin B; a MIC value measured that is higher than the comparable value observed for polymyxin B; details: class relative to polymyxin B
Procedure: as §2

[9] = system: P. aeruginosa 44; experiment: as above; format: cell-based; design: key: A: a MIC value measurement that is the same as that observed for polymyxin B; a MIC value measured that is lower than the comparable value observed for polymxin B; a MIC value measured that is higher than the comparable value observed for polymyxin B; details: class relative to polymyxin B
Procedure: as §2

[10] = system: K. pneumoniae 933; experiment: as above; format: cell-based; design: key: A: a MIC value measurement that is the same as that observed for polymyxin B; a MIC value measured that is lower than the comparable value observed for polymxin B; a MIC value measured that is higher than the comparable value observed for polymyxin B; details: class relative to polymyxin B
Procedure: as §2

[11] = system: A. baumannii 1570; experiment: as above; format: cell-based; design: key: A: a MIC value measurement that is the same as that observed for polymyxin B; a MIC value measured that is lower than the comparable value observed for polymxin B; a MIC value measured that is higher than the comparable value observed for polymyxin B; details: class relative to polymyxin B
Procedure: as §2

[12] = system: K. pneu; experiment: MIC50 and MIC90, panel of Gram negative bacterial strains (CLSI broth microdilution); format: cell-based, K. pneumonia; design: key to K. pneu MIC50 / K. pneu MIC90: A: a measured MIC value equal to that of polymyxin B; a measured MIC value less than the corresponding MIC value measured for polymyxin B; a measured MIC value greater than the corresponding MIC value measured for polymyxin B; details: class relative to polymyxin B; some strains multi-drug resistant
Procedure: as §3, §4, §5, §6, §7, §8, §9, §10

[13] = system: P. aeruginosa 44; experiment: Neutropenic mouse lung infection model; format: in vivo; details: mouse lung model, 8 through 20 mg/kg dose levels
Procedure: Compound of Formula (Ia) was tested in a murine thigh model. For the thigh model, female CD-1 mice were rendered neutropenic by IP injection on days −4 and −1 with 150 and 100 mg/kg cyclophosphamide, respectively. On day 0 mice were infected with 1×10^7 colony-forming units (cfu) of A. baumannii 1570 in one thigh muscle, and then administered compound SC in a dose ranging from 2 to 12 mg/kg at 1 and 6 hours post-infection.
The mouse lung model was run in the same manner as the thigh infection model, except that mice were infected IN with 1×10^7 cfu of P. aeruginosa 44 on day 0. Doses administered in the lung study ranged from 8 to 20 mg/kg. The ED−3log10 was based on cfu determination from the lung tissue 24 hours post-infection.

[14] = system: A. baum; experiment: MIC50 and MIC90, panel of Gram negative bacterial strains (CLSI broth microdilution); format: cell-based, A. baumanni; design: key to A. baum MIC50 / A. baum MIC90: A: a measured MIC value equal to that of polymyxin B; a measured MIC value less than the corresponding MIC value measured for polymyxin B; a measured MIC value greater than the corresponding MIC value measured for polymyxin B; details: class relative to polymyxin B; some strains multi-drug resistant
Procedure: as §3, §4, §5, §6, §7, §8, §9, §10

[15] = Acute toxicity testing in rats; format: in vivo, Sprague-Dawley rat; details: IV dose of 1 mg/kg, similar experiment
Procedure: One female Sprague-Dawley rat was administered a 1 mg/kg dose of the test Compound 5. Clinical observations were taken immediately following the administration of compound and at 0.5, 1, 2 and 4 hours post-dose.

SMILES	P. aeruginosa MIC50 [1]	P. aeruginosa MIC90 [1]	E. coli MIC50 [2]	E. coli MIC90 [2]	A. baumannii MIC50 [3]	A. baumannii MIC90 [3]	K. pneumoniae MIC50 [4]	K. pneumoniae MIC90 [4]	MIC P. aeruginosa #44, 0% surfactant [5]	MIC P. aeruginosa #44, 10% surfactant [5]	MIC P. aeruginosa #44, 40% surfactant [5]	E. coli MIC50 [6]	E. coli MIC90 [6]	MIC K. pneumoniae 1800 (PMX-resistant) [8]	MIC P. aeruginosa 44 [9]	MIC K. pneumoniae 933 [10]	MIC A. baumannii 1570 [11]	K. pneu MIC50 [12]	K. pneu MIC90 [12]	Lungs cleared within one log10 of limit of detection [13]	further results
CC(C)C[C@@H]1NC(=O)[C@@H](Cc2ccccc2)NC(=O)[C@H](CCN)NC(=O)C(NC(=O)[C@H](CCN)NC(=O)[C@@H](NC(=O)[C@H](CCN)NC(=O)Nc2ccccc2Cl)C(C)O)CCNC(=O)[C@H](C(C)O)NC(=O)[C@H](CCN)NC(=O)C(CCN)NC1=O (stereo partly shown) [Formula (II) comparator] ({NH(2-ClPh)-CO}-[Dab][Thr(3ξ)][Dab][ξDab][Dab][dF]L[ξDab][Dab][Thr(3ξ)]; lactam 4-C)	B	A	C	C	C	C	C	C	C	B	A	C	C	C	C	C	C	C	C	not seen	P. aeru MIC50 ([7]; listed as 2): B and A; P. aeru MIC90 ([7]; listed as 2): A and C; A. baum MIC50 [14]: C; A. baum MIC90 [14]: C
CC[C@H](C)CCCCC(=O)N[C@@H](CCN)C(=O)N[C@H](C(=O)N[C@H](CCN)C(=O)N[C@H]1CCNC(=O)[C@H]([C@@H](C)O)NC(=O)[C@H](CCN)NC(=O)[C@H](CCN)NC(=O)[C@H]([C@@H](C)O)NC(=O)[C@@H](CC(C)C)NC(=O)[C@H](CCN)NC1=O)[C@@H](C)O [Native Polymyxin A, Polymyxin A] (X1-[Dab]T[dDab][Dab][Dab][dL]T[Dab][Dab]T; lactam 4-C)	A	C	B	A	A	A	C	C	C	B	B	B	A	C	A	B	C	C	C	not observed	Clinical signs [15]: no clinical signs were observed; P. aeru MIC50 [7]: A; P. aeru MIC90 [7]: C; A. baum MIC50 [14]: A; A. baum MIC90 [14]: A
